According to patent US8299048B2, “Hexahydrocyclopentyl[f]indazole sulfonamides and derivatives thereof as selective glucocorticoid receptor modulators” (Merck Sharp & Dohme Corp., priority 2008, dated 2012):

Experiments:
[1] = target: T1, human GR (Homo sapiens, UniProt P04150); assay: Trans-Activation Modulation of Glucocorticoid Receptor (GRAMMER), MMTV-LUC reporter, agonist mode; assay type: cell-based; set-up: endogenous in cells; conditions: maximum activity; for Emax: A549, A549 cells, read-out: Transactivation A549 Cells GRAMMER Emax
T1 sequence (P04150 1-777): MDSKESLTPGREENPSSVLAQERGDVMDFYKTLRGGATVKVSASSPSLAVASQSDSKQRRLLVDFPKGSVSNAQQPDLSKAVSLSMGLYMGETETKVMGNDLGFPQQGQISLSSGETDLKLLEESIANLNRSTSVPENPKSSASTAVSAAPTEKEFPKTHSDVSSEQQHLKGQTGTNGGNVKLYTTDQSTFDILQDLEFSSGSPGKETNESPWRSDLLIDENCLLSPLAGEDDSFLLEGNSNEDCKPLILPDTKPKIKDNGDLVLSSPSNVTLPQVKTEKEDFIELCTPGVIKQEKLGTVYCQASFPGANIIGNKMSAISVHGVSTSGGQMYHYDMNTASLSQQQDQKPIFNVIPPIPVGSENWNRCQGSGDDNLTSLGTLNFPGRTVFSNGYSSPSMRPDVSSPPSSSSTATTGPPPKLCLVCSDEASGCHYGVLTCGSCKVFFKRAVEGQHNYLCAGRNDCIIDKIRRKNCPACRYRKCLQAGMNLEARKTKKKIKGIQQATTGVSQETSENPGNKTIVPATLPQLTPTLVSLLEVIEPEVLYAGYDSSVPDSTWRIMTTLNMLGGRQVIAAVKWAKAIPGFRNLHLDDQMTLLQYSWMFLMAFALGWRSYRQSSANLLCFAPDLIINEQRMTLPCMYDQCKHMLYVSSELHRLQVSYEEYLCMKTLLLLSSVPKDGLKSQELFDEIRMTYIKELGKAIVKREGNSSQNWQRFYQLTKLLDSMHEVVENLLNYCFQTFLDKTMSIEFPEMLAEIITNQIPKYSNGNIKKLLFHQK
Source text: This assay assesses the ability of test compounds to control transcription from the MMTV-LUC reporter gene in lung adenocarcinoma A549 cells or MDA-MB-453 cells, a human breast cancer cell line that naturally expresses the human GR. The assay measures induction of a modified MMTV LTR/promoter linked to the LUC reporter gene.
The routine transient assay consists of plating 7,000-25,000 cells/well of a white, clear-bottom 96-well plate. Alternatively, 384-well plates can be used at a cell concentration of 10,000/well. The media that the cells are plated in is “exponential growth medium” which consists of phenol red-free RPMI1640 containing 10% FBS, 4 mM L-glutamine, 20 mM HEPES, 10 ug/mL human insulin, and 20 ug/mL gentamicin. Incubator conditions are 37° C. and 5% CO2. The transfection is done in batch mode. The cells are trypsinized and counted to the right cell number in the proper amount of fresh media. It is then gently mixed with the FuGene6/DNA mix and plated onto the 96 or 384-well plate, all the wells receive 100 uL or 40 uL, respectively, of medium+lipid/DNA complex then incubated 37° C. overnight. The transfection cocktail consists of serum-free OptiMEM, FuGene6 reagent and DNA. The manufacturer's (Roche Biochemical) protocol for cocktail setup is as follows: The lipid to DNA ratio is approximately 2.5:1 and the incubation time is 20 min at room temperature. Sixteen to 24 hours after transfection, the cells are treated with dexamethasone to a final concentration of 10 nM as well as the compound of interest, such that final DMSO (vehicle) concentration is equal to or less than 1%. Each plate also contains samples that are treated with 10 nM dexamethasone alone, which is used as the 100% activity control. The cells are exposed to the compounds for 24 hours. After 24 hours, the cells are lysed by a Promega cell culture lysis buffer for approximately 30 min and then the luciferase activity in the extracts is assayed in the 96-well format luminometer. In 384-well format, Steady-Glo (Promega) or Steady-Lite (PerkinElmer) can be used by adding an equal volume of reagent to the media present in each well. Activity induced by 10 nM dexamethasone alone is set at 100% activity. Antagonist activity is calculated by determining the decrease in dexamethasone-induced activity in response to compound treatment relative to samples that were treated with dexamethasone alone. […] This transactivation assay can be performed in an agonist and antagonist mode to identify these different activities.

[2] = target: T1, human GR; assay: Transrepression Assay (GITAR), TNFα-β-lactamase reporter in U937 cells; assay type: cell-based; set-up: U937 cells contain an endogenous glucocorticoid receptor (GR); endogenous in cells; host or cells: U937 cells stably transfected with the TNF-alpha promoter/beta-lactamase reporter; conditions: for GITAR > GRAMM % SEP: GITAR Emax minus GRAMMER Emax
Source text: This assay assesses the ability of test compounds to control transcription from the TNFα-β-lactamase reporter gene in U937 cells, a human myelomonocytic leukemia cell line that naturally expresses the human GR. The assay measures compound dependent-repression of the TNFa promoter linked to a reporter gene.
The human U937 cells that had been stablely transfected with the TNF-α promoter driving β-lactamase are used for this assay. U937 cells contain an endogenous glucocorticoid receptor (GR). Cells are maintained in RPMI 1640 Growth medium (Gibco Cat#11875-093) containing 25 mM HEPES, 10% FBS, 2 mM L-Glutamine, 1 mM Sodium pyruvate, 25 μg/ml Gentamicin (Gibco Cat#15710-064), 1:1000 2-Mercaptoethanol (Gibco Cat#21985-023) and 0.8 mg/ml G418 (Gibco Cat#10131-027). The density of the cells in the flask needs to be about 1×10^6−3×10^6/ml at the time of harvest. Usually, the cells are split to 1.2˜1.4×10^5/ml (1:10) 3 days prior to the assay. 50,000 cells/well are plated in 96 well black-walled plates the day of assay. Test compounds are added 10 μL/well, and cells are incubated at 37° C. for 30˜45 min. For assaying compounds, first dilute 1:10 in DMSO to make 1 mM, then further dilute 1:100 in medium to make 10× stock prior to adding to the cells. Add 50 ng/mlPMA (Sigma, cat# P8139) 10 μL/well to a final concentration 5 ng/ml, and 1 μg/ml LPS (Sigma, cat# L4130) 10 μL/well to a final concentration 100 ng/ml. Incubate cells at 37° C. overnight for ˜18 hr. PMA is stored frozen as 100 μg/ml stock in DMSO. Dilute 1:10 in DMSO for a working stock of 10 μg/ml and store at −20 C. For assaying, dilute the 10 μg/ml working stock 1:200 in medium to make a 10× solution (50 ng/ml). Store frozen LPS at 1 mg/ml in PBS, dilute 1:1000 in medium to make 10× (1 μg/ml) for the assay. Add 6× loading buffer (CCF2-AM) 20 μL/well, and incubate at room temperature for 70˜90 min. […] The activity repressed by 100 nM dexamethasone alone is set as 100% activity.

[3] = U-937, U937 cells, maximum activity, read-out: Transrepression U937 Cells GITAR Emax
[4] = U-937, activity repressed by 100 nM dexamethasone alone set as 100%, read-out: maximal activity in the transrepression (GITAR) assay

| Compound | Emax [1] | GITAR > GRAMM % SEP [2] | Emax [2, 3] | Emax [2, 4] | Transactivation A549 Cells GRAMMER Emax ([1]; A549 cells) | Transrepression U937 Cells GITAR Emax ([2]; U937 cells, maximum activity) |
| --- | --- | --- | --- | --- | --- | --- |
| C[C@]12Cc3cnn(-c4ccc(F)cc4)c3C=C1CC[C@@H]2CN(CC1CC1)S(=O)(=O)c1ccccc1Cl [Example 12, 2-chloro-N-(cyclopropylmethyl)-N-{[(4αR,5S)-1-(4-fluorophenyl)-4α-methyl-1,4,4α,5,6,7-hexahydrocyclopenta[f]indazol-5-yl]methyl}benzenesulfonamide] | 34.4% | 29.8% | 64.2% | > 5% | – | – |
| C[C@]12Cc3cnn(-c4ccc(F)cc4)c3C=C1CC[C@@H]2CN(CC1CC1)S(=O)(=O)c1ccccc1Cl [Example 22, 2-chloro-N-(cyclopropylmethyl)-N-{[(4αR,5S)-1-(4-fluorophenyl)-4α-methyl-1,4,4α,5,6,7-hexahydrocyclopenta[f]indazol-5-yl]methyl}benzenesulfonamide] | – | 43.9% | – | – | 27.9% | 71.8% |
| C[C@]12Cc3cnn(-c4ccc(F)cc4)c3C=C1CC[C@@H]2CN(CCO)S(=O)(=O)c1ccc(-c2cnco2)s1 [Example 57, N-{[(4αR,5S)-1-(4-fluorophenyl)-4α-methyl-1,4,4α,5,6,7-hexahydrocyclopenta[f]indazol-5-yl]methyl}-N-(2-hydroxyethyl)-5-(1,3-oxazol-5-yl)thiophene-2-sulfonamide] | 2.7% | 21.0% | 23.8% | > 5% | – | – |
| C[C@]12Cc3cnn(-c4ccc(F)cc4)c3C=C1CC[C@@H]2CN(CCO)S(=O)(=O)c1ccc(C#N)cc1 [Example 62, 4-cyano-N-{[(4αR,5S)-1-(4-fluorophenyl)-4α-methyl-1,4,4α,5,6,7-hexahydrocyclopenta[f]indazol-5-yl]methyl}-N-(2-hydroxyethyl)benezenesulfonamide] | 26% | 42.5% | 68.5% | > 5% | – | – |
| C[C@]12Cc3cnn(-c4ccc(F)cc4)c3C=C1CC[C@@H]2CN(CCc1ccccc1F)S(=O)(=O)C1CC1 [Example 101, N-[2-(2-fluorophenyl)ethyl]-N-{[(4αR,5S)-1-(4-fluorophenyl)-4α-methyl-1,4,4α,5,6,7-hexahydrocyclopenta[f]indazol-5-yl]methyl}cyclopropanesulfonamide] | 62.8% | 32.6% | 95.4% | > 5% | – | – |
